Assay results reported in PubChem BioAssay (NCI).
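Five compound concentrations were applied to cells in 96-well plates for 48 hours; endpoints were derived by simple linear interpolation of the resulting dose-response curve. Here, GI50 denotes the concentration required for 50% inhibition of growth. Definition used: TGI = concentration required for complete inhibition of growth.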

Key:
Assay in all cases: NCI anticancer screen, dose series, 48 h
EKVX NSCLC = system: EKVX NSCLC
HOP-92 NSCLC = system: HOP-92 NSCLC
SK-MEL-28 melanoma = system: SK-MEL-28 melanoma
LOX IMVI melanoma = system: LOX IMVI melanoma
UACC-257 melanoma = system: UACC-257 melanoma
SF-295 CNS = system: SF-295 CNS
A498 renal = system: A498 renal
TK-10 renal = system: TK-10 renal
OVCAR-3 ovarian = system: OVCAR-3 ovarian
RPMI-8226 leukemia = system: RPMI-8226 leukemia

Compound	TGI (EKVX NSCLC)	TGI (HOP-92 NSCLC)	TGI (SK-MEL-28 melanoma)	TGI (LOX IMVI melanoma)	TGI (UACC-257 melanoma)	TGI (SF-295 CNS)	TGI (A498 renal)	TGI (TK-10 renal)	TGI (OVCAR-3 ovarian)	TGI (RPMI-8226 leukemia)	GI50 (EKVX NSCLC)	GI50 (HOP-92 NSCLC)	GI50 (SK-MEL-28 melanoma)	GI50 (LOX IMVI melanoma)	GI50 (UACC-257 melanoma)	GI50 (SF-295 CNS)	GI50 (A498 renal)	GI50 (TK-10 renal)	GI50 (OVCAR-3 ovarian)	GI50 (RPMI-8226 leukemia)
CCc1oc2ccccc2c1C(=O)c1cc(Br)c(O)c(Br)c1	95.2 µM	64.2 µM	> 100 µM	55.3 µM	42.8 µM	83.5 µM	45 µM	64.9 µM	43.2 µM	75.5 µM	–	–	–	–	–	–	–	–	–	–
Cn1c(=O)c2[nH]c(COCc3nc4c([nH]3)c(=O)n(C)c(=O)n4C)nc2n(C)c1=O	> 100 µM	> 100 µM	> 100 µM	> 100 µM	> 100 µM	> 100 µM	> 100 µM	> 100 µM	> 100 µM	> 100 µM	–	–	–	–	–	–	–	–	–	–
CC(=O)Oc1cccc2c1C(=O)C(Br)(Br)CCC2	26.7 µM	10.4 µM	25.7 µM	6.26 µM	25 µM	31.3 µM	33.4 µM	30.8 µM	13.3 µM	7.34 µM	–	–	–	–	–	–	–	–	–	–
O=[N+]([O-])c1cc(Br)cc2c1[nH]c1ccc(Br)cc12	> 100 µM	36.5 µM	> 100 µM	> 100 µM	> 100 µM	9.35 µM	81.8 µM	8.48 µM	7.42 µM	> 100 µM	3.19 µM	7.85 µM	39 µM	4.9 µM	86 µM	2.78 µM	6.86 µM	2.46 µM	2.56 µM	25.4 µM
CCCCC(=O)[O-].N.N.N.N.N.[Co+3].[O-][Cl+3]([O-])([O-])[O-]	> 100 µM	> 100 µM	> 100 µM	> 100 µM	> 100 µM	> 100 µM	> 100 µM	> 100 µM	> 100 µM	> 100 µM	> 100 µM	> 100 µM	> 100 µM	> 100 µM	> 100 µM	> 100 µM	> 100 µM	> 100 µM	> 100 µM	> 100 µM
CC(=O)OC[C@@H]1[C@H]2CC(=O)O[C@H]2C[C@H]1OC(C)=O	> 100 µM	> 100 µM	> 100 µM	> 100 µM	> 100 µM	> 100 µM	> 100 µM	> 100 µM	> 100 µM	> 100 µM	–	–	–	–	–	–	–	–	–	–
COc1cc(-c2cn(-c3ccc(Cl)cc3)c(=O)[nH]2)cc(OC)c1OC	> 100 µM	> 100 µM	> 100 µM	> 100 µM	> 100 µM	> 100 µM	> 100 µM	> 100 µM	> 100 µM	> 100 µM	> 100 µM	> 100 µM	> 100 µM	> 100 µM	> 100 µM	> 100 µM	> 100 µM	> 100 µM	> 100 µM	> 100 µM
CC(C)(C)C(=O)C(c1ccc(-c2cscn2)cc1)c1ccc(-c2cscn2)cc1	> 100 µM	30 µM	> 100 µM	> 100 µM	> 100 µM	84.5 µM	65.8 µM	92 µM	> 84.7 µM	> 100 µM	–	–	–	–	–	–	–	–	–	–
c1ccc2[nH]c(-c3ccc(OCCCCCOc4ccc(-c5nc6ccccc6[nH]5)cc4)cc3)nc2c1	> 70.4 µM	10.1 µM	0.903 µM	2.57 µM	3.83 µM	13.1 µM	15.8 µM	3.77 µM	1.84 µM	6.51 µM	14.8 µM	3.84 µM	0.394 µM	1.22 µM	1.65 µM	5.61 µM	6.51 µM	2.05 µM	0.828 µM	2.21 µM
COc1ccc(/C=C(\C#N)c2cc(OC)c3c(c2)OCO3)cc1	> 100 µM	52.2 µM	44.8 µM	> 100 µM	57 µM	21 µM	0.193 µM	41.1 µM	< 0.0136 µM	27 µM	1.98 µM	8.09 µM	0.0117 µM	0.0271 µM	17 µM	< 0.01 µM	< 0.01 µM	0.56 µM	< 0.01 µM	0.019 µM
NC(=O)C1=C(c2ccccc2)c2ccccc2C1=O	33.3 µM	35.3 µM	44.1 µM	21.4 µM	27.1 µM	41.9 µM	60.8 µM	32.4 µM	24.6 µM	72.4 µM	–	–	–	–	–	–	–	–	–	–
Cc1ccc(NC2=C(Sc3ccc(Cl)cc3)C(=O)N(Cc3ccccc3)C2=O)cc1Cl	> 100 µM	17 µM	> 100 µM	17.1 µM	30.3 µM	> 100 µM	17.1 µM	68.3 µM	5.31 µM	40.8 µM	26.7 µM	4.59 µM	28.7 µM	4.84 µM	7.37 µM	5.86 µM	4.8 µM	11.7 µM	2.09 µM	12.7 µM
CN(C)c1ccc(/C=C2\N=C(c3ccc(N)cc3)OC2=O)cc1	> 100 µM	> 100 µM	> 100 µM	> 100 µM	> 100 µM	> 100 µM	> 100 µM	> 100 µM	> 100 µM	> 100 µM	–	–	–	–	–	–	–	–	–	–
N#CC(C#N)=CN1CCN(C(=O)c2ccccc2)C1=S	11.4 µM	> 100 µM	> 100 µM	> 100 µM	81.9 µM	> 100 µM	–	75.1 µM	> 100 µM	> 100 µM	3.48 µM	56.8 µM	45.4 µM	> 100 µM	25.3 µM	46.2 µM	–	23.3 µM	36.4 µM	35.3 µM
CCOc1cc2ncc(C#N)c(Nc3ccc(F)c(Cl)c3)c2cc1NC(=O)/C=C/CN(C)C	> 6.51 µM	> 4.39 µM	> 4.73 µM	2.14 µM	> 6.03 µM	> 10 µM	0.799 µM	0.506 µM	1.77 µM	3.33 µM	0.0187 µM	0.254 µM	1.08 µM	0.761 µM	1.27 µM	2.25 µM	0.145 µM	0.00445 µM	0.216 µM	1.04 µM
